Measured values published in patent US20140051679A1, “KINASE INHIBITORS AND METHOD OF TREATING CANCER WITH SAME” (UNIVERISTY HEALTH NETWORKS, priority 2011, published 2014).

Assays:
[1] = target: T1, human TTK (Homo sapiens, UniProt P33981); assay: TTK inhibition assay (indirect ELISA); assay type: biochemical; conditions: GST-TTK 0.68 nM, 16 μM ATP; read-out: IC50 Ranges TTK
T1 construct: amino terminal GST fusion of full length human TTK; purchased Invitrogen
T1 sequence (P33981 1-857): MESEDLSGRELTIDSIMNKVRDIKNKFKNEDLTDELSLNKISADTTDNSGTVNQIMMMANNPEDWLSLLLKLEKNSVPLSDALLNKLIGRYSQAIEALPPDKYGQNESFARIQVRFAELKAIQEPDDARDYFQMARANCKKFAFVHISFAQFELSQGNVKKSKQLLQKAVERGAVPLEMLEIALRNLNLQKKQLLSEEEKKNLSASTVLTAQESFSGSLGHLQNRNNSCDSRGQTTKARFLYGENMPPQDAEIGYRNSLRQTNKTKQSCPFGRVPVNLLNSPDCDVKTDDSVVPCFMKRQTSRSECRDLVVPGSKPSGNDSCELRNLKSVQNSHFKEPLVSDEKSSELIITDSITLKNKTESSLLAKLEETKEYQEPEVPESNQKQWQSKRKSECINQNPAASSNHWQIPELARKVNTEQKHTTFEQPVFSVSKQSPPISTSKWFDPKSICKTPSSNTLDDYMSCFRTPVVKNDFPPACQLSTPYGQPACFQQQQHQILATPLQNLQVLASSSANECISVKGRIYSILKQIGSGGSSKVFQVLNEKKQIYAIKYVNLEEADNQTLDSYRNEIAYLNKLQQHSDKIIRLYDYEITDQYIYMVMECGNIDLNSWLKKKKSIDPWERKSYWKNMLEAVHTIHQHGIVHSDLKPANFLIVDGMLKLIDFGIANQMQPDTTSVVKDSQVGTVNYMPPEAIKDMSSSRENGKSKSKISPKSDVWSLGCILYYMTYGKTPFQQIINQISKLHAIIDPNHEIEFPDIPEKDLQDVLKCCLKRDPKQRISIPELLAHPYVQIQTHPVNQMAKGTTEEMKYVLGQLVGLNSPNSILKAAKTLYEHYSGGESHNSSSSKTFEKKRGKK

[2] = target: T2, human PLK4 (Homo sapiens, UniProt O00444); assay: PLK4 inhibition assay (indirect ELISA); assay type: biochemical; conditions: GST-PLK4 4 nM, 15 μM ATP; read-out: IC50 Ranges PLK4
T2 construct: amino terminal GST fusion of residues 1-391 of human PLK4; made in house; host or cells: E. coli
T2 sequence (O00444 1-391): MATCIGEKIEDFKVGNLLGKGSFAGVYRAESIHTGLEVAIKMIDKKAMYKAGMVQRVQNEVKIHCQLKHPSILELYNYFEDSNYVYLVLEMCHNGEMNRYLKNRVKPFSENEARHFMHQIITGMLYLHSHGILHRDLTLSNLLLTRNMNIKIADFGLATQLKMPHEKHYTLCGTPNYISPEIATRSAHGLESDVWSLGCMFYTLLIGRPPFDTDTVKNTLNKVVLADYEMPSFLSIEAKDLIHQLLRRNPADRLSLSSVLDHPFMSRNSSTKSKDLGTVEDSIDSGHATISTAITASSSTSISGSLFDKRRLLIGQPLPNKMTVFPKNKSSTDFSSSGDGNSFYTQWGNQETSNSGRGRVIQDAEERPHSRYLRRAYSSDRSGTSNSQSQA
How it was run: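 Compounds were tested either at a single 10 μM dose or across 10-point titrations (typically 0.5 to 0.001 μM), preincubated 15 min with 4 nM GST-PLK4 (human 1-391, dephosphorylated) before 15 μM ATP was added. MBP substrate phosphorylation over 30 min, pH 7.5 HEPES/MgCl2 buffer, read by HRP/TMB ELISA (450 nm). % inhibition vs. high-activity control; IC50 by logistic fit.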

[3] = target: T3, Aurora B (Homo sapiens, UniProt Q96GD4); assay: Aurora B inhibition assay (Z-Lyte); assay type: biochemical; conditions: 28 nM Aurora B, 128 μM ATP; read-out: IC50 Ranges Aurora B
T3 construct: purchased Invitrogen PV3970
T3 sequence (Q96GD4 whole entry): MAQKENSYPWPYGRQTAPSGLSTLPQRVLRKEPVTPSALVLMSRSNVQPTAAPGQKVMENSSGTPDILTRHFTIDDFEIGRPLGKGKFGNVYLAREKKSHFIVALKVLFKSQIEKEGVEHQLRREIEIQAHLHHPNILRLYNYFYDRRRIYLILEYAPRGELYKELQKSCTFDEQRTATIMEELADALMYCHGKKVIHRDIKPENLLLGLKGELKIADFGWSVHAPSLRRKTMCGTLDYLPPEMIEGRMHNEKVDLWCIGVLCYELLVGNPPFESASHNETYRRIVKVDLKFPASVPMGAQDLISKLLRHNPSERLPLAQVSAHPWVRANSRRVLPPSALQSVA
Protocol: Aurora B inhibition was determined using the Z-Lyte assay kit from Invitrogen. The assay was performed using the recommended manufacturer's instructions with 128 μM ATP and 28 nM Aurora B (Invitrogen cat #PV3970). The % inhibition values were determined according to the manufacturer's directions and IC50 values were obtained using a non-linear 4 point logistic curve fit (XLfit4, IDBS)

[4] = tested on: MDA-MB-231 breast cancer cells; assay: Cell growth inhibition, Sulforhodamine B assay, MDA-MB-231; assay type: cell-based; conditions: Homo sapiens, 120 h, 5 days culture, SRB assay, read-out: Cell Line GI50 Range MDA-MB-231
[5] = tested on: MDA-MB-468 breast cancer cells; assay: Cell growth inhibition, Sulforhodamine B assay, MDA-MB-468; assay type: cell-based; conditions: Homo sapiens, 120 h, 5 days culture, SRB assay, read-out: Cell Line GI50 Range MDA-MB-468
[6] = tested on: HCT116 colon cancer cells; assay: Cell growth inhibition, Sulforhodamine B assay, HCT116; assay type: cell-based; conditions: Homo sapiens, HCT-116, 120 h, 5 days culture, SRB assay, read-out: Cell Line GI50 Range HCT116
[7] = tested on: HT29 colon cancer cells; assay: Cell growth inhibition, Sulforhodamine B assay, HT29; assay type: cell-based; conditions: Homo sapiens, HT-29, 120 h, 5 days culture, SRB assay, read-out: Cell Line GI50 Range HT29
[8] = tested on: PA-1 ovarian cancer cells; assay: Cell growth inhibition, Sulforhodamine B assay, PA-1; assay type: cell-based; conditions: 120 h, 5 days culture, SRB assay, read-out: Cell Line GI50 Range PA-1
[9] = tested on: OVCAR-3 ovarian cancer cells; assay: Cell growth inhibition, Sulforhodamine B assay, OVCAR-3; assay type: cell-based; conditions: Homo sapiens, 120 h, 5 days culture, SRB assay, read-out: Cell Line GI50 Range OVCAR-3
[10] = tested on: Colon tumor initiating cells (TICs), 12 colon; assay: Colon tumor-initiating cell growth inhibition (Alamar Blue); assay type: cell-based; conditions: 216 h, 9 days, read-out: GI50 range 12 colon
Source text: Materials and Methods: Non-tissue or tissure cultured treated T-75 flask and 96-well plates were purchased from VWR. Vitamin B-27 supplement, MEM NEAA (minimum essential medium non essential amino acids), sodium pyruvate, L-glutamine, N2 supplement, penicillin-streptomycin and fungizone/amphotericin B were obtained from Invitrogen. Lipid mixture, heparin and EGF were purchased from Sigma; bFGF from BD Biosciences. Colon tumor initiating cells (TICs) were routinely maintained using non-tissue cultured treated T-75 flasks in DMEM:F12 medium containing 0.2XB-27 supplement, 4 ug/ml heparin, 1XMEM NEAA, 1× sodium pyruvate, 1 mM glutamine, 10 pg/ul bFGF, 20 pg/ul EGF, 1×N2 supplement, lipid mixture, penicillin-streptomycin and fungizone/amphotericin B. Ovarian TICs were routinely maintained using tissue cultured treated T-75 flasks in DMEM:F12 medium containing 1XB-27 supplement, 4 ug/ml heparin, 20 pg/ul bFGF, 20 pg/ul EGF and penicillin-streptomycin.
Compounds described herein were dissolved in DMSO and further diluted in cell culture medium for GI50 determination. Colon TICs were trypsinized and seeded into non-tissue cultured treated 96-well plates with 4,000 cells/well. After 24 h, compound was added into the cell culture at different concentrations, and the final concentration of DMSO was adjusted to 0.1%. Cells were then cultured at 37° C. for 9 days. Ovarian TICs were trypsinized and seeded into tissue cultured treated 96-well plates with 1,000 cells/well. After 24 h, compound was added into the cell culture at different concentrations, and the final concentration of DMSO was adjusted to 0.1%. Cells were then cultured at 37° C. for 6 days. Cell viability was assessed by Alamar Blue assay: 10 ul of Alamar Blue was added into each well. After 4 hours incubation at 37° C., fluorescence was recorded at excitation 544 and emission 590. GI50 (Growth inhibition) was calculated using GraphPad Prism 4.0 software.

[11] = tested on: Ovarian TICs, 2393A ovarian; assay: Ovarian tumor-initiating cell growth inhibition (Alamar Blue); assay type: cell-based; conditions: 144 h, 6 days, read-out: GI50 range 2393A ovarian

CN1CCC(Oc2ccc(-c3n[nH]c4ccc(C(=O)NC(c5ccccc5F)C5CC5)cc34)cc2)CC1 (stereo not drawn) [Example A136, N-(cyclopropyl(2-fluorophenyl)methyl)-3-(4-((1-methylpiperidin-4-yl)oxy)phenyl)-1H-indazole-5-carboxamide]
≤ 5 µM: IC50 [1] | IC50 [2] | IC50 [3] | GI50 [4] | GI50 [5] | GI50 [6] | GI50 [7] | GI50 [8] | GI50 [9] | GI50 [10] | GI50 [11]

CN1CCC(Oc2ccc(-c3n[nH]c4ccc(C(=O)N[C@H](CCO)c5ccccc5)cc34)cc2)CC1 [Example A137, (R)—N-(3-hydroxy-1-phenylpropyl)-3-(4-((1-methylpiperidin-4-yl)oxy)phenyl)-1H-indazole-5-carboxamide]
≤ 5 µM: IC50 [1] | IC50 [2] | IC50 [3] | GI50 [4] | GI50 [5] | GI50 [6] | GI50 [7] | GI50 [8] | GI50 [9] | GI50 [10] | GI50 [11]

CN1CCC(Oc2ccc(-c3n[nH]c4ccc(NC(=O)C(c5ccccc5)C5CC5)cc34)cc2)CC1 (stereo not drawn) [Example A138, 2-cyclopropyl-N-(3-(4-((1-methylpiperidin-4-yl)oxy)phenyl)-1H-indazol-5-yl)-2-phenylacetamide]
≤ 5 µM: IC50 [1] | IC50 [2] | IC50 [3] | GI50 [4] | GI50 [5] | GI50 [6] | GI50 [7] | GI50 [8] | GI50 [9] | GI50 [10] | GI50 [11]

CC(C)C(NC(=O)c1ccc2[nH]nc(-c3ccc(OC4CCN(C)CC4)cc3)c2c1)c1ccccc1Cl (stereo not drawn) [Example A144, N-(1-(2-chlorophenyl)-2-methylpropyl)-3-(4-((1-methylpiperidin-4-yl)oxy)phenyl)-1H-indazole-5-carboxamide]
≤ 5 µM: IC50 [1] | IC50 [2] | IC50 [3] | GI50 [4] | GI50 [5] | GI50 [6] | GI50 [7] | GI50 [8] | GI50 [9] | GI50 [10] | GI50 [11]

CN1CCC(Oc2ccc(-c3n[nH]c4ccc(C(=O)NC(c5cccs5)C5CC5)cc34)cc2)CC1 (stereo not drawn) [Example A147]
≤ 5 µM: IC50 [1] | IC50 [2] | IC50 [3] | GI50 [4] | GI50 [5] | GI50 [6] | GI50 [7] | GI50 [8] | GI50 [9] | GI50 [10] | GI50 [11]

CN1CCC(Oc2ccc(-c3n[nH]c4ccc(C(=O)NC(c5ccccc5Cl)C5CC5)cc34)cc2)CC1 (stereo not drawn) [Example A150, N-((2-chlorophenyl)(cyclopropyl)methyl)-3-(4-((1-methylpiperidin-4-yl)oxy)phenyl)-1H-indazole-5-carboxamide]
≤ 5 µM: IC50 [1] | IC50 [2] | IC50 [3] | GI50 [4] | GI50 [5] | GI50 [6] | GI50 [7] | GI50 [8] | GI50 [9] | GI50 [10] | GI50 [11]

COc1ccccc1C(NC(=O)c1ccc2[nH]nc(-c3ccc(OC4CCN(C)CC4)cc3)c2c1)C1CC1 (stereo not drawn) [Example A151, N-(cyclopropyl(2-methoxyphenyl)methyl)-3-(4-((1-methylpiperidin-4-yl)oxy)phenyl)-1H-indazole-5-carboxamide]
≤ 5 µM: IC50 [1] | IC50 [2] | IC50 [3] | GI50 [4] | GI50 [5] | GI50 [6] | GI50 [7] | GI50 [8] | GI50 [9] | GI50 [10] | GI50 [11]

COCCN1CCC(Oc2ccc(-c3n[nH]c4ccc(C(=O)N[C@H](c5ccsc5)C5CC5)cc34)cc2)CC1 [Example A154]
≤ 5 µM: IC50 [1] | IC50 [2] | IC50 [3] | GI50 [4] | GI50 [5] | GI50 [6] | GI50 [7] | GI50 [8] | GI50 [9] | GI50 [10] | GI50 [11]

O=C(NC(c1ccccc1)C1CC1)c1ccc2[nH]nc(-c3ccc(OC4CCN(C5COC5)CC4)cc3)c2c1 (stereo not drawn) [Example A157]
≤ 5 µM: IC50 [1] | IC50 [2] | IC50 [3] | GI50 [4] | GI50 [5] | GI50 [6] | GI50 [7] | GI50 [8] | GI50 [9] | GI50 [10] | GI50 [11]

COCCN1CCC(Oc2ccc(-c3n[nH]c4ccc(C(=O)N[C@H](c5cccs5)C5CC5)cc34)cc2)CC1 [Example A163, (S)—N-(cyclopropyl(thiophen-2-yl)methyl)-3-(4-((1-(2-methoxyethyl)piperidin-4-yl)oxy)phenyl)-1H-indazole-5-carboxamide]
≤ 5 µM: IC50 [1] | IC50 [2] | IC50 [3] | GI50 [4] | GI50 [5] | GI50 [6] | GI50 [7] | GI50 [8] | GI50 [9] | GI50 [10] | GI50 [11]

CN1CCC(Oc2ccc(-c3n[nH]c4ccc(C(=O)N[C@@H](c5sccc5Cl)C5CC5)cc34)cc2)CC1 [Example A166, (R)—N-((3-chlorothiophen-2-yl)(cyclopropyl)methyl)-3-(4-((1-methylpiperidin-4-yl)oxy)phenyl)-1H-indazole-5-carboxamide]
≤ 5 µM: IC50 [1] | IC50 [2] | IC50 [3] | GI50 [4] | GI50 [5] | GI50 [6] | GI50 [7] | GI50 [8] | GI50 [9] | GI50 [10] | GI50 [11]

CC[C@@H](NC(=O)c1ccc2[nH]nc(-c3ccc(OC4CCN(C)CC4)cc3)c2c1)c1cccc(OC)c1 [Example A174, (R)—N-(1-(3-methoxyphenyl)propyl)-3-(4-((1-methylpiperidin-4-yl)oxy)phenyl)-1H-indazole-5-carboxamide]
≤ 5 µM: IC50 [1] | IC50 [2] | IC50 [3] | GI50 [4] | GI50 [5] | GI50 [6] | GI50 [7] | GI50 [8] | GI50 [9] | GI50 [10] | GI50 [11]
